{
  "source": "patent US6703502B2",
  "about": "(priority 1997, dated 2004)",
  "molecular_target": "α7 nAChR subtype (Rattus norvegicus, UniProt Q05941)",
  "sequence (Q05941 23-502 limits assumed)": "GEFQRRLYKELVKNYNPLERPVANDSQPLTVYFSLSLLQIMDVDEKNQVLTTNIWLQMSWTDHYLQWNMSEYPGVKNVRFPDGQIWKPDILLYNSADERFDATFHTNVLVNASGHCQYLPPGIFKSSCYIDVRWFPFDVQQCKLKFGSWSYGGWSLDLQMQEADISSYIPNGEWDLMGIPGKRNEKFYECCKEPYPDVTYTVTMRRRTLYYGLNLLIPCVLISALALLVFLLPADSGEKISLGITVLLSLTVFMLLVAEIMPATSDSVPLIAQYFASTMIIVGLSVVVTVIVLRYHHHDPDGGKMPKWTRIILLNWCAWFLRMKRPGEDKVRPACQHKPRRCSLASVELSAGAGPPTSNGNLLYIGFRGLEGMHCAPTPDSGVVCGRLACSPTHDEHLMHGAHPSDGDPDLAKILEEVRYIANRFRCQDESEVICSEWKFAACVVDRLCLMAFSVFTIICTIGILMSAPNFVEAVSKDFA",
  "type": "binding",
  "settings": "read-out: KD of radioligand",
  "data": [
    {"substance": "[^125I]-α-Bungarotoxin [^125I-α-BTX]", "values": [
      {"measurement": "Kd", "value": 1.67, "unit": "nM"}
    ]}
  ]
}
